The numbers were not newly measured in patent US20080113973A1, “Compositions and methods involving the combination of a thromboxane A2 receptor antagonist and an inhibitor of cyclooxygenase-2” (B.M.R.A. Corporation B.V., priority 2002, published 2008), which cites them from elsewhere.

With `CS(=O)(=O)c1ccc(C2=C(c3ccccc3)C(=O)OC2)cc1` [Rofecoxib], for the setting “after oral administration”, the “Time of peak plasma concentrations” value is 2 to 3 h. Where the note is “in vivo”, the half life entry was “about 17 hours”.
